# Earlier results in US6987099B2, “Uncomplexed cyclodextrin compositions for odor control” (The Procter & Gamble Company, priority 1997, dated 2006).
# Where a name gives a salt, the structure may show the parent alone.
row,Structure (SMILES),solubility in water
1,OCCOc1ccccc1 [2-phenoxyethanol],about 2.67%
2,OCCc1ccccc1 [2-phenylethanol],about 2%
3,"O=[N+]([O-])C1(Br)COCOC1 [Bronidox L, 5-bromo-5-nitro-1,3-dioxane]",about 0.46%
4,"CC1(C)C(=O)N(CO)C(=O)N1CO [DMDM hydantoin, 1,3-bis(hydroxymethyl)-5,5-dimethyl-2,4-imidazolidinedione]",more than 50%
5,"ClC=CC[N+]12CN3CN(CN(C3)C1)C2.[Cl-] [Dowicil 200, 1-(3-Chlorallyl)-3,5,7-triaza-1-azoniaadamantane chloride]",freely soluble in water
6,OCc1ccccc1 [benzyl alcohol],about 4%
7,"CC(C)(O)C(Cl)(Cl)Cl [chlorobutanol, 1,1,1-Trichloro-2-methylpropan-2-ol]",about 0.8%
8,"[H]/N=C(\N/C(=N/[H])NCCCCCCNC(=N)NC(=N)Nc1ccc(Cl)cc1)Nc1ccc(Cl)cc1 [diacetate salt, 1,1′-hexamethylene bis(5-(p-chlorophenyl)biguanide), reference compound]",about 1.8%
9,"[H]/N=C(\N/C(=N/[H])NCCCCCCNC(=N)NC(=N)Nc1ccc(Cl)cc1)Nc1ccc(Cl)cc1 [digluconate salt, 1,1′-hexamethylene bis(5-(p-chlorophenyl)biguanide), reference compound]",about 70%
10,[Na+].[O-][n+]1ccccc1[S-] [sodium pyrithione],about 50%
